Laboratory results reported in patent publication US20100256145A1, “USE OF KCNQ POTASSIUM CHANNEL OPENERS FOR REDUCING SYMPTOMS OF OR TREATING DISORDERS OR CONDITIONS WHEREIN THE DOPAMINERGIC SYSTEM IS DISRUPTED” (H. LUNDBECK A/S, priority 2007, published 2010).
Marks after values point to notes of the source that are not given here.

Columns and labels:
[1] = test system: dopaminergic neurons in the ventral tegmental area; assay: Spontaneous DA cell firing in the VTA of anaesthetised rats (extracellular single-cell recordings); conditions: mean ± SEM
Procedure: Subjects. Male Wistar rats (Harlan, The Netherlands) weighing 270-340 g are used. The animals are housed under a 12-hr light/dark cycle under controlled conditions for regular in-door temperature (21±2° C.) and humidity (55±5%) with food and tap water available ad libitum.
Administration of compound. […] These i.v. doses match the s.c. dose range of 0-10 mg/kg.
Statistical analysis. Drug effects are assessed by statistical comparison of the mean firing rate calculated from the 2-3 min period immediately before the first drug administration (baseline) to the mean firing rate calculated from at least 60 s at the maximal drug effect. Data are analysed statistically by a one-way analysis of variance (ANOVA) followed by Student-Newman-Keuls post hoc test. A p-value less than 0.05 is considered significant.

[2] = test system: conditioned avoidance response; assay: Conditioned avoidance response in rats; assay type: in vivo, rat
Procedure: Subjects. Male Wistar rats (Taconic, Denmark) weighing 150 g at the beginning of the study are used. The rats are housed in pairs and maintained on a 12 h light/dark cycle (lights on 06:00). The animals are fed once daily (approx. 6 pellets/rat) in order to keep the rats at 80% of their free-feeding weight. Water is available ad libitum. Temperature (21±1° C.) and relative humidity (55±5%) are automatically controlled.
Experimental procedure. Conditioned avoidance testing is conducted using four automated shuttle-boxes (ENV-010M, MED-Associates) each placed in a sound-attenuated chamber. Each box is divided into two compartments by a partition with an opening. The position of the animal and crossings from one compartment to the other are detected by two photocells placed on either side of the dividing wall. Upon presentation of the conditioned stimuli (CS), tone and light, the animals have 10s to cross to the other compartment of the shuttle-box in order to turn the CS off (end the trial) and avoid the appearance of the unconditioned stimulus (UCS). If the rat remains in the same compartment for more than 10s, the UCS is presented as 0.5 mA scrambled foot-shocks until escape is performed or 10s in maximal duration. The following behavioural variables are evaluated: avoidance (response to CS within 10s); escape (reponse to CS+UCS); escape failures (failure to respond); intertrial crosses and locomotor activity. The rats are habituated to the shuttle-box 3 min before each test session. During training each test session consists of 30 trials with intertrial intervals varying randomly between 20s and 30s. Training is carried out until the rats display an avoidance of 80% or more, on 3 consecutive days. A test is preceded by a pre-test the day before giving rise to a baseline value for each animal, thus the animals serve as their own control. Seven to eight rats are used at each dose level. A parallel control group receiving the vehicle of the test compound is also included.
Administration of compound. […] All compounds are dissolved in a vehicle of 10% 2-hydroxy-propyl-beta-cyclodextrin (isotonic with glucose, pH 5-7).
Statistical analyses. The effects of compounds on avoidance and escape failure behaviours are statistically evaluated by means of two-way repeated measures ANOVA followed by post hoc comparisons (Student-Newman-Keuls Method) when appropriate. P-levels <0.05 are considered statistically significant.

[3] = test system: extracellular DA levels in the nucleus accumbens; assay: Microdialysis: amphetamine-evoked DA levels in the nucleus accumbens of freely moving rats; assay type: in vivo, rat; conditions: for Normalised DA level in the nucleus accumbens: compound 8.1 mg/kg s.c., D-amphetamine 0.5 mg/kg s.c. 30 min later
Procedure: Subjects. Male Sprague-Dawley rats (Charles River), initially weighing 275-300 g, are used.
Surgery. Animals are anaesthetized with hypnorm/dormicum (2 ml/kg s.c.) and intracerebral guide cannulas (CMA/12) are stereotaxically implanted, positioning the dialysis probe tip in the nucleus accumbens (co-ordinates: 1.7 mm anterior to bregma, −1.2 mm lateral to bregma, 8.0 mm ventral to the dura). Anchor screws and acrylic cement is applied for fixation of the guide cannula. The body temperature of the animals is maintained at 37° C. by means of a rectal probe and a heating plate. The rats are allowed to recover from surgery for 2 days, housed singly in cages.
Experimental procedure. On the day of the experiment, a microdialysis probe (CMA/12, 0.5 mm diameter, 2 mm length) is inserted through the guide cannula of the conscious animal. The probes are connected to a microinjection pump via a dual channel swivel which allowed the animals unrestricted movements. Perfusion of the microdialysis probe with filtered Ringer solution (145 mM NaCl, 3 mM KCl, 1 mM MgCl2, 1.2 mM CaCl2) is maintained for the duration of the experiment at a constant flow rate of 1 μL/min. After 180 min of stabilisation, the experiments are initiated. Dialysates are collected every 20 min. After the experiments the rats are sacrificed by decapitation, their brains removed, frozen and sliced for probe placement verification.
Administration of compounds. […] Thirty minutes later, D-amphetamine sulphate (0.5 mg/kg s.c.) is administered.
Analysis of dialysate. The concentration of DA in the dialysates is assessed by means of HPLC with electrochemical detection. The dialysate constituents are separated by reverse phase liquid chromatography (ODS 150×3 mm, […]). Mobile phase consists of 90 mM NaH2PO4, 50 mM sodium citrate, 367 mg/l sodium 1-octanesulfonic acid, 50 μM EDTA and 8% acetonitrile (pH 4.0) at a flow rate of 0.5 ml/min. Electrochemical detection of DA is accomplished using a coulometric detector; potential set at E1=−75 mV and E2=300 mV (guard cell at 350 mV) (Coulochem II, ESA). The dialysate levels of DA in the three dialyse samples preceding the administration of compound are averaged and used as baseline level of DA (100%)
Statistical analysis. The dialysate levels of DA in the three dialyse samples preceding the administration of compound are averaged and used as baseline level of DA (100%). Data are analysed using repeated measure analyses of variance followed by post hoc tests (Tukey test), when appropriate. *P<0.05 were considered significant.

[4] = test system: d-amphetamine induced hyperactivity in rats; assay: Amphetamine-induced hyperactivity in the rat (amphetamine antagonism); assay type: in vivo; conditions: read-out: Amphetamine antagonism ED50 (mg/kg) ± std. dev.
Source text: Subjects. Male Wistar rats (Taconic, Denmark) weighing 170-240 g are used. […] Eight rats are used at each dose level and in the parallel control group receiving the vehicle to the test compound plus d-amphetamine and the group receiving vehicle injections only.

[5] = test system: social behaviours in the Mutual Resident Intruder rat test; assay: Mutual Resident Intruder rat test; conditions: for % of time Agonistic behaviour: sum of defensive and aggressive behaviour
Procedure: Subjects. 5 week old male Wistar rats (Harlan, Germany) were used. The animals were housed in groups of four animals per cage and kept under a 12 h/12 h light dark rhythm (start of the dark phase at 2:00 p.m., CET), at 20° C. room temperature and 60% humidity. During the whole study, standard diet and tap water was provided ad libitum.
Experimental procedure. […] Therefore, half of the cage is the home territory of each animal. At test time, the wall is removed from the cage so that the animals can interact with each other for 15 minutes. Both animals are from the same test group. The cage is illuminated by dim red light. The test starts 1 hour after beginning of the dark phase. All animals are marked individually by means of black symbols on their back. Behaviour is registered by video. Each animal is tested once.
Analyses. In both the TE test and the MRI test, the portion of time (%) spent in non-social, friendly, defensive, aggressive or agonistic (sum of defensive and aggressive behaviour) behaviour was compared across the experimental groups against the relevant control group by means of Analysis of Variance (ANOVA) (one-factor).

[6] = Rattus norvegicus, sc, read-out: % inhibition of avoidance (Std. dev.) Relative to baseline
[7] = 2 mg/kg s.c. 30 min before test
[8] = 10 mg/kg s.c. 30 min before test

CCOC(=O)Nc1ccc(NCc2ccc(F)cc2)cc1N [Compound 1, reference compound]
Spontaneous DA cell firing rate in the VTA ([1]; cumulated dose 0.3 mg/kg i.v.): 95.4 ± 5.0 (4) percentage of baseline firing rate | Spontaneous DA cell firing rate in the VTA ([1]; cumulated dose 1.0 mg/kg i.v.): 90.5 ± 4.6 (5) percentage of baseline firing rate | Spontaneous DA cell firing rate in the VTA ([1]; cumulated dose 2.0 mg/kg i.v.): 81.1 ± 5.1 (5) percentage of baseline firing rate | Spontaneous DA cell firing rate in the VTA ([1]; cumulated dose 4.0 mg/kg i.v.): 67.1 ± 3.7 (4) percentage of baseline firing rate | Spontaneous DA cell firing rate in the VTA ([1]; cumulated dose 6.0 mg/kg i.v.): 60.6 ± 0.7 (2) percentage of baseline firing rate | inhibition at 5 mg/kg [2, 6]: 1% | inhibition at 10 mg/kg [2, 6]: 59% | Escape failures (effect on motor performance) ([2]; rats, all tested doses (2.5-10 mg/kg s.c.), data not shown): None of the tested doses cause any incidences of escape failures | Normalised DA level in the nucleus accumbens ([3]; Time 0 min (baseline sample)): 96 ± 6 % of baseline | Normalised DA level in the nucleus accumbens ([3]; Time 20 min): 160 ± 11 % of baseline | Normalised DA level in the nucleus accumbens ([3]; Time 40 min): 241 ± 33 % of baseline | Normalised DA level in the nucleus accumbens ([3]; Time 60 min): 221 ± 26* % of baseline | Normalised DA level in the nucleus accumbens ([3]; Time 80 min): 217 ± 14* % of baseline | Normalised DA level in the nucleus accumbens ([3]; Time 100 min): 173 ± 9 % of baseline | Normalised DA level in the nucleus accumbens ([3]; Time 120 min): 139 ± 9 % of baseline | Normalised DA level in the nucleus accumbens ([3]; Time 140 min): 120 ± 9 % of baseline | Normalised DA level in the nucleus accumbens ([3]; Time −20 min (baseline sample)): 99 ± 6 % of baseline | Normalised DA level in the nucleus accumbens ([3]; Time −40 min (baseline sample)): 105 ± 3 % of baseline | Effect on the basal extracellular DA level in the nucleus accumbens ([3]; without amphetamine, data not shown): None of the latter three compounds significantly affects the basal extracellular DA level | ED50 [4]: 2.3 mg/kg | % of time Aggressive behaviour [5, 7]: 16.1 % of time | % of time Defensive behaviour [5, 7]: 16.3 % of time | % of time Friendly behaviour [5, 7]: 3.4 % of time | % of time Non-social behaviour [5, 7]: 64.2 % of time | % of time Agonistic behaviour [5, 7]: 32.4 % of time | % of time Aggressive behaviour [5, 8]: 4.2*** % of time | % of time Defensive behaviour [5, 8]: 3.6*** % of time | % of time Friendly behaviour [5, 8]: 4.9* % of time | % of time Non-social behaviour [5, 8]: 87.3*** % of time | % of time Agonistic behaviour [5, 8]: 7.8*** % of time
